According to publication PMC6155299, “Synthesis and Evaluation of New Pyrazoline Derivatives as Potential Anticancer Agents in HepG-2 Cell Line” (Molecules : A Journal of Synthetic Chemistry and Natural …, 2017):
Read-outs that look alike come from different tables or passages of the source.

Assays:
[1] = test system: HepG-2 cells; assay: MTT assay, cytotoxic effects on HepG-2 cells; type: cell-based, human; settings: 48 h
Procedure: (§1) Primary hepatocytes were isolated from male SD rats weighing 250–300 g using a modified in situ collagenase perfusion method and then the cells were cultured in Dulbecco’s Modified Eagle’s Medium (DMEM) with 2 g/L bovine serum albumin (BSA) and 50 mg/L gentamicin. HepG-2 cells were incubated in RPMI 1640 medium supplemented with 10% fetal bovine serum (FBS) and 1% penicillin–streptomycin liquid. Cells were incubated at 37 °C in a humidified atmosphere of 95% air and 5% CO2. Stock solutions of compounds and cisplatin were prepared in dimethyl sulfoxide (DMSO), then added to fresh culture medium to obtain final concentrations.
Next, compounds b14 and b18 were prepared in five different concentrations (20 µM, 40 µM, 60 µM, 80 µM, 100 µM), and compounds b15, b16, and b17, along with cisplatin, were prepared in seven different concentrations (2.5 µM, 5 µM, 7.5 µM, 10 µM, 20 µM, 40 µM, 60 µM). A suspension of growing cells (50,000/mL) was prepared, and 100 µL/well dispensed into 96-well plates, yielding a density of 5000 cells/well. The cells were incubated for 24 h before adding the pyrazoline derivatives. The optimal cell number for cytotoxicity assays was determined in preliminary experiments. At the end of the incubation period, the medium was removed and 100 µL of different concentrations of pyrazoline derivatives were added to wells for 24 h and 48 h. Following the exposure period, 20 µL of MTT (5 mg/mL) were added to cells and incubated for a further 4 h at 37 °C. The medium was removed and the formazan crystals were solubilized by adding 150 µL DMSO to each well. After 10 min of shaking, the absorbance was measured at 550 nm using a FilterMax F5 Multi-Mode Microplate Reader (Energy Chemical, Shanghai, China). Cells were treated with each compound with four replicates per concentration, and each experiment was conducted at least three times. Dose–inhibition rate curves and IC50 values, defined as the drug concentrations which reduced absorbance to 50% of control values, were then generated.

[2] = test system: primary hepatocytes; assay: MTS assay, cytotoxicity against primary hepatocytes; type: cell-based, rat; settings: for IC50: Rattus norvegicus, Hepatocyte, 48 h; for cytotoxicity against primary hepatocytes (in words): compared with HepG-2
Procedure: as §1
The cytotoxicological activity of compounds b5, b9, and b14–18 were evaluated against primary hepatocytes using the MTS assay (Cell Titer 96® Aqueous Cell Proliferation Assay, Promega, Cat. No. G5421) as a fast and sensitive quantification of cell proliferation and viability. The concentrations of compounds were prepared in seven different concentrations (2.5 µM, 5 µM, 10 µM, 20 µM, 40 µM, 80 µM, 160 µM). Cells were seeded into 96-well plates at a density of 26,000 cells/well. The plates were incubated for 24 h prior to any treatment. At the end of this period, the medium was removed and 100 µL of different concentrations of pyrazoline derivatives were added to wells for 48 h. Following the exposure period, 20 μL of the combined MTS/PMS solution was added to cells and incubated for a further 2 h at 37 °C, then the absorbance was recorded at 490 nm using an ELISA Plate Reader (ELISA, Emeryville, CA, USA). The values of IC50, the effective concentration at which 50% of the primary hepatocytes were inhibited, were calculated to evaluate the cytotoxic activities.

[3] = test system: HepG-2 cells; assay: Cell cycle analysis by flow cytometry (PI); type: cell-based, human; settings: 24 h
Procedure: Based on the results of the cytotoxicity assay, compound b17 was selected for further mechanistic study with HepG-2 cells. For flow cytometry analysis of DNA content, approximately 1.5 × 10^5 HepG-2 cells/well in exponential growth mode were plated in 6-well plates and allowed to adhere, then treated with different concentrations of compound b17 for 24 h. After incubation, the cells were collected, centrifuged, and fixed with ice-cold ethanol (70%). The cells were treated with RNase A and stained with PI. Samples were analyzed on a BD Accuri C6 flow cytometer (BD, New York, NY, USA). DNA histograms were analyzed using ModFit for Windows.

[4] = test system: HepG-2 cells; assay: Annexin-V assay (annexin V/PI flow cytometry); type: cell-based, human; settings: 12 h
Procedure: Approximately 1.5 × 10^5 HepG-2 cells/well were plated in 6-well plates and allowed to adhere. After 24 h, the medium was replaced with fresh culture medium containing compound b17 at final concentrations of 0 µM, 0.9 µM, 2.7 µM, and 4.5 µM. Cells were harvested after 12 h. The cells were trypsinized, washed in phosphate-buffered saline (PBS), and centrifuged at 1000 rpm for 5 min. The cells were then resuspended in 200 µL of staining solution (containing 10 µL PI and 5 µL Annexin V–PE in binding buffer), mixed gently, and incubated for 15 min at 25 °C in the dark. The samples were later analyzed with a BD Accuri™ C6 flow cytometer.

[5] = Homo sapiens, HepG2, HepG-2 cell line, read-out: IC50 HepG-2
[6] = Homo sapiens, HepG2, HepG-2 cells, read-out: IC50 against HepG-2 cells

| melting point [°C] | SMILES | IC50 [1, 5] [µM] | IC50 [2] [µM] | also measured |
| --- | --- | --- | --- | --- |
| 250.1 to 251.2 | COc1cc(C2CC(c3ccccc3O)=NN2C(=O)c2ccc([N+](=O)[O-])cc2)cc(OC)c1O (centres unmarked) [b12, [5-(4-Hydroxy-3,5-dimethoxyphenyl)-3-(2-hydroxyphenyl)-4,5-dihydro-pyrazol-1-yl]-(4-nitrophenyl)-methanone] | > 50 | – | – |
| 196.1 to 197.2 | COc1cc(C2CC(c3ccccc3O)=NN2C(=O)c2cccs2)cc(OC)c1O (centres unmarked) [b15, [5-(4-Hydroxy-3,5-dimethoxyphenyl)-3-(2-hydroxyphenyl)-4,5-dihydro-pyrazol-1-yl]-thiophen-2-yl-methanone] | 4.51 ± 1.49 | 19.24 ± 0.08 | – |
| 194.6 to 194.7 | COc1cc(C2CC(c3ccccc3O)=NN2C(=O)c2ccccc2[N+](=O)[O-])cc(OC)c1O (centres unmarked) [b10, [5-(4-Hydroxy-3,5-dimethoxyphenyl)-3-(2-hydroxyphenyl)-4,5-dihydro-pyrazol-1-yl]-(2-nitrophenyl)-methanone] | > 50 | – | – |
| 169.2 to 170.1 | COc1cc(C2CC(c3ccccc3O)=NN2C(=O)c2cc3ccccc3s2)cc(OC)c1O (centres unmarked) [b17, Benzo[b]thiophen-2-yl-[5-(4-hydroxy-3,5-dimethoxyphenyl)-3-(2-hydroxyphenyl)-4,5-dihydro-pyrazol-1-yl]-methanone] | 3.57 ± 1.39 | 33.5 ± 2.33 | cytotoxicity against primary hepatocytes (in words) [2]: low cytotoxicity; cells in G1 phase (Dip G1) ([3]; HepG-2, 0.9 µM): 56.88%; cells in G2/M phase (Dip G2) ([3]; HepG-2, 0.9 µM): 16.90%; cells in S phase (Dip S) ([3]; HepG-2, 0.9 µM): 26.22%; cells in G1 phase (Dip G1) ([3]; HepG-2, 2.7 µM): 33.02%; cells in G2/M phase (Dip G2) ([3]; HepG-2, 2.7 µM): 41.50%; cells in S phase (Dip S) ([3]; HepG-2, 2.7 µM): 25.48%; cells in G1 phase (Dip G1) ([3]; HepG-2, 4.5 µM): 3.11%; cells in S phase (Dip S) ([3]; HepG-2, 4.5 µM): 13.89%; percentage of cell apoptosis ([4]; HepG-2, 0.9 µM): 7.6%; percentage of cell apoptosis ([4]; HepG-2, 2.7 µM): 8.7%; percentage of cell apoptosis ([4]; HepG-2, 4.5 µM): 10.2% |
| 195.5 to 197 | COc1cc(C2CC(c3ccccc3O)=NN2S(=O)(=O)c2ccc([N+](=O)[O-])cc2)cc(OC)c1O (centres unmarked) [b8, 4-[5-(2-Hydroxyphenyl)-2-(4-nitro-benzenesulfonyl)-3,4-dihydro-2H-pyrazol-3-yl]-2,6-dimethoxy-phenol] | > 50 | – | – |
| 201.1 to 203.7 | COc1cc(C2CC(c3ccccc3O)=NN2C(=O)c2ccco2)cc(OC)c1O (centres unmarked) [b16, Furan-2-yl-[5-(4-hydroxy-3,5-dimethoxyphenyl)-3-(2-hydroxyphenyl)-4,5-dihydro-pyrazol-1-yl]-methanone] | 4.61 ± 1.27 | 20.7 ± 1.72 | – |
| 131.9 to 133.5 | COc1cc(C2CC(c3ccccc3O)=NN2S(=O)(=O)c2cccc([N+](=O)[O-])c2)cc(OC)c1O (centres unmarked) [b7, 4-[5-(2-Hydroxyphenyl)-2-(3-nitro-benzenesulfonyl)-3,4-dihydro-2H-pyrazol-3-yl]-2,6-dimethoxy-phenol] | > 50 | – | – |
| 207.7 to 209.3 | COc1cc(C2CC(c3ccccc3O)=NN2C(=O)c2cccc([N+](=O)[O-])c2)cc(OC)c1O (centres unmarked) [b11, [5-(4-Hydroxy-3,5-dimethoxyphenyl)-3-(2-hydroxyphenyl)-4,5-dihydro-pyrazol-1-yl]-(3-nitrophenyl)-methanone] | > 50 | – | – |
| 185.5 to 186.5 | COc1cc(C2CC(c3ccccc3O)=NN2C(=O)c2ccc3ccccc3c2)cc(OC)c1O (centres unmarked) [b14, [5-(4-Hydroxy-3,5-dimethoxyphenyl)-3-(2-hydroxyphenyl)-4,5-dihydro-pyrazol-1-yl]-naphthalen-2-yl-methanone] | 18 ± 1.37 | 22.7 ± 1.21 | – |
| 151.1 to 152.8 | COc1cc(C2CC(c3ccccc3O)=NN2S(=O)(=O)c2ccccc2[N+](=O)[O-])cc(OC)c1O (centres unmarked) [b6, 4-[5-(2-Hydroxyphenyl)-2-(2-nitro-benzenesulfonyl)-3,4-dihydro-2H-pyrazol-3-yl]-2,6-dimethoxy-phenol] | > 50 | – | – |

The next lines start with the compound.

| SMILES | melting point [°C] | IC50 [1, 5] [µM] | IC50 [2] [µM] | also measured |
| --- | --- | --- | --- | --- |
| N.N.[Cl][Pt][Cl] [Cisplatin, cisplatin, reference compound] | – | – | – | IC50 ([1]; HepG-2 cell line, read-out: IC50 HepG-2): 8.45 ± 1.05 µM |
| COc1cc(C2CC(c3ccccc3O)=NN2S(=O)(=O)c2ccccc2)cc(OC)c1O (centres unmarked) [b5, 4-[2-Benzenesulfonyl-5-(2-hydroxyphenyl)-3,4-dihydro-2H-pyrazol-3-yl]-2,6-dimethoxy-phenol] | 163.1 to 164.4 | 28.8 ± 1.32 | 35.1 ± 2.21 | IC50 [1, 6]: < 50 µM; cytotoxicity against primary hepatocytes (in words) [2]: lower cytotoxicological activity |
| COc1cc(C2CC(c3ccccc3O)=NN2)cc(OC)c1O (centres unmarked) [b1, 4-[5-(2-Hydroxyphenyl)-3,4-dihydro-2H-pyrazol-3-yl]-2,6-dimethoxy-phenol] | 140.3 to 140.7 | > 50 | – | – |
| COc1cc(C2CC(c3ccc([N+](=O)[O-])cc3)=NN2)cc(Br)c1O (centres unmarked) [b4, 2-Bromo-6-methoxy-4-[5-(4-nitrophenyl)-3,4-dihydro-2H-pyrazol-3-yl]-phenol] | 208.6 to 208.9 | > 50 | – | – |
| COc1cc(C2CC(c3ccccc3O)=NN2S(=O)(=O)c2ccc(C)cc2)cc(OC)c1O (centres unmarked) [b9, 4-[5-(2-Hydroxyphenyl)-2-(toluene-4-sulfonyl)-3,4-dihydro-2H-pyrazol-3-yl]-2,6-dimethoxy-phenol] | 194.6 to 194.7 | 12 ± 1.83 | 29.7 ± 2.43 | IC50 [1, 6]: < 50 µM; cytotoxicity against primary hepatocytes (in words) [2]: lower cytotoxicological activity |
| COc1cc(C2CC(c3ccc(C)cc3)=NN2c2ccccc2)cc(OC)c1OC (centres unmarked) [b19, 1-Phenyl-3-p-tolyl-5-(3,4,5-trimethoxyphenyl)-4,5-dihydro-1H-pyrazole] | 137.9 to 140.3 | > 50 | – | – |
| COc1cc(C2CC(c3ccccc3O)=NN2C(=O)c2cc([N+](=O)[O-])cc([N+](=O)[O-])c2)cc(OC)c1O (centres unmarked) [b13, (3,5-Dinitrophenyl)-[5-(4-hydroxy-3,5-dimethoxyphenyl)-3-(2-hydroxyphenyl)-4,5-dihydro-pyrazol-1-yl]-methanone] | 240.4 to 240.9 | > 50 | – | – |
| COc1cc(C2CC(c3ccccc3O)=NN2c2ccccc2)cc(OC)c1O (centres unmarked) [b18, 4-[5-(2-Hydroxyphenyl)-2-phenyl-3,4-dihydro-2H-pyrazol-3-yl]-2,6-dimethoxy-phenol] | 169.7 to 170.8 | 28.5 ± 1.34 | 50.7 ± 3.21 | – |
| COc1cc(C2CC(c3ccc([N+](=O)[O-])cc3)=NN2)cc(OC)c1O (centres unmarked) [b2, 2,6-Dimethoxy-4-[5-(4-nitrophenyl)-3,4-dihydro-2H-pyrazol-3-yl]-phenol] | 140.7 to 141.1 | > 50 | – | – |
| COc1cc(C2CC(c3ccccc3O)=NN2)cc(Br)c1O (centres unmarked) [b3, 2-Bromo-4-[5-(2-hydroxyphenyl)-3,4-dihydro-2H-pyrazol-3-yl]-6-methoxy-phenol] | 181.8 to 183.9 | > 50 | – | – |
